Source: patent publication US20050261319A1, “Novel 2-amino-4-quinazolinones and 2-amino-4-oxoquinazolones as LXR nuclear receptor binding compounds with partial agonistic properties” (priority 2002, published 2005)

Tested on: HepG2 liver cells
Assay: Triglyceride assay in HepG2 cells
Assay type: cell-based
Settings: 24 h, 25 pM
Description: Methods: Cultures of the monocyte-macrophage cell line and the hepatocytes HepG2 are obtained from the American Type tissue Culture Collection, Rockville, Md. and were grown in RPMI 1640 medium supplemented with 10% fetal bovine serum, 10 mM HEPES, 2 mM pyruvate, 50 uM (3-Mercaptoethanol (THP-1) and Minimum essential medium (Eagle) with 2 mM L-glutamine and Earle's BSS supplemented with 10% fetal bovine serum, 2 mM glutamin, 0.1 mM non-essential amino acids, 1 mM sodium pyruvate (HepG2), respectively, at 37° C. in 5% CO2.
For cholesterol efflux measurements and triglyceride analysis cells are seeded in 6 well plates at 1.8×10^6 cells (THP-1) and 1×10^6 cells (HepG2) per well, respectively.
TRIGLYCERIDE ASSAY HepG2 cells are seeded in poly-L-Lysine coated 6 well plates at 1×10^6 cells per well in EMEM medium containing 10% FCS until they were appr. 60% confluent. Before treatment with LXR compounds growth medium is changed to medium containing 10% charcoal/dextran-stripped FCS for 12 h. Treatment is done for 24 h in medium containing 10% charcoal/dextran-stripped FCS. Cells are washed twice with ice-cold PBS/0.2% BSA and twice with cold PBS and all liquid carefully removed. Triglyceride are extracted with 1.5 ml hexane/isopropanol=3: 2 per well with gentle shaking for 2-3 h at RT according to Pan et al. (2002) JBC277, 4413-4421 and Goti et al. (1998) Biochem J, 332, 57-65. The extraction solution is collected, dried under vacuum and redissolved in isopropanol/1.5% triton. The remaining cellular proteins are lysed with 0.3 N NaOH and protein content measured with the Biorad Bradford reagent.
Triglyceride levels are measured as esterified glycerol using a commercial enzymatic colorimetric kit (Sigma 343-25P). In a preliminary assay it is checked by omitting the lipase enzyme that contribution of free glycerol is negligible.

Structure (SMILES)	triglyceride mass
C=CCn1c(N2C3CC(C)(C)CC2(C)C3)nc2ccc(I)cc2c1=O (stereo not shown) [formula (9)]	do not cause a significant increase
C=CCn1c(N2[C@@H]3CC(C)(C)C[C@@]2(C)C3)nc2cccc(F)c2c1=O [formula (12)]	slight increase
CC(C)n1c(N2C3CC(C)(C)CC2(C)C3)nc2ccc(I)cc2c1=O (stereo not shown) [formula (10)]	do not cause a significant increase
CCCn1c(N2[C@@H]3CC(C)(C)C[C@@]2(C)C3)nc2cccc(F)c2c1=O [formula (11)]	slight increase
